Three compounds from paper PMC12871931, “The importin‐alpha superfamily engages in ethylene signaling by shuttling [sequence] INSENSITIVE 2 from the endoplasmic reticulum to the nucleus” (The Febs Journal, 2025) can be followed below.

In assay [1] the test system is Col‐0 (wild‐type) seedlings. Nature of the assay: Triple response assay, wild‐type. As to conditions: dark‐grown, vs w/o ACC. It counts as in vivo, Arabidopsis thaliana. As to the method: Around 10 mg of seeds was filled into a 2‐mL reaction tube and put into a desiccator with the lid opened. Additionally, a beaker with 100 mL 37% perchloric acid was put into the desiccator. 3 mL of 37% hydrochloric acid was pipetted into the beaker to start the reaction, and the lid of the desiccator was closed immediately. The seeds were incubated for 1 h. After the incubation time, the lid of the desiccator was opened slightly, while the tubes were incubated for 20 more minutes to wait for the gas to evaporate. 1 mL of sterile water was added to the reaction tubes, and the seeds were stratified by storage at 4 °C for 3 days before planting (otherwise they can be planted directly after this procedure). Before starting to plant the seeds, any material (e.g., pots and tubs) was sterilized with 70% ethanol. A mixture of soil, vermiculite, and sand (ratio 8:1:1) was prepared, and water was added in the right proportion to make the soil mix soggy but not mushy. The soil mix was sterilized by heating it in the microwave at 800 W for about 10 min. Pots were filled with the sterilized soil mix afterwards. Around 100 μL of 1% agarose in tap water was added to the reaction tubes containing the sterilized seedlings for better pipetting precision, and the seeds were planted into the soil mix. The growth of A. thaliana was performed at 22 °C, 60% humidity, and 100–120 μEinstein light intensity. The plants were watered only from the bottom every 2–3 days. After 5 weeks, the plants were big enough to grow in their own pots instead of several plants being grown crowded in one pot.
The triple response media for the agar plates was prepared by mixing 0.43% (w/v) of Murashige and Skoog (MS) salts and 1% (w/v) sucrose. The pH is adjusted to 6.0 before adding 0.7% (w/v) plant agar to the media and autoclaving it at 121 °C for 30 min. […] The seedlings were documented, and the length of the hypocotyl was analyzed using a binocular microscope and the software Motion 3.0, respectively. […]

Assay [2] has as its system triple impα loss‐of‐function mutant seedlings. Nature of the assay: Triple response assay, triple impα mutants. It counts as in vivo, Arabidopsis thaliana. Particulars: 0.1 μM ACC, at least 20 seedlings per condition. The protocol:
To gain further insights into the role of the IMPα superfamily for ethylene signaling, we studied multiple higher order IMPα loss‐of‐function mutants (Fig. 2). […] To check for potential differences in ethylene sensitivity, we supplemented the experiments from Fig. 2B with 0.1 and 1 μM ACC (Fig. 2C). […] These findings indicate that the mutation of three IMPα isoforms leads to diminished sensitivity in ethylene perception, supporting the pivotal role of the IMPα superfamily in ethylene signaling. However, no differences in ethylene sensing were observed among the various triple mutants, further reinforcing the hypothesis of IMPα redundancy in EIN2 transport. The deletion of an excessive number of IMPα isoforms is likely to have detrimental effects on regular plant growth and development, which has already been observed in the triple mutants (impα‐1;impα‐2;impα‐3). Due to the pivotal role of the IMPα‐IMPβ machinery in the nuclear transport of a large number of cargo proteins, we adopted an alternative strategy to investigate the role of IMPα proteins in plant ethylene signal transduction by testing their physical interaction with the ethylene key regulator EIN2.
(§1) Around 10 mg of seeds was filled into a 2‐mL reaction tube and put into a desiccator with the lid opened. Additionally, a beaker with 100 mL 37% perchloric acid was put into the desiccator. […]

In assay [3] the test system is ein2‐1 loss‐of‐function mutant seedlings. As to the kind of experiment: Triple response assay, ethylene‐insensitive mutant. It counts as in vivo, Arabidopsis thaliana. Particulars: ein2‐1, dark‐grown, ACC in agar vs w/o ACC.
From the text: In the presence of ethylene, dark‐grown seedlings display the characteristic phenotypic responses known as triple response. We hypothesized that nucleocytoplasmic transport and nuclear import of the EIN2 cytosolic part (CEND), which bridges ethylene signal transduction from the ER membrane to the nucleus, are mediated by the IMPα‐IMPβ transport machinery. This hypothesis is supported by the previously identified NLS motif in the EIN2 C terminus. To investigate whether any of the IMPα isoforms are implicated in ethylene signaling, A. thaliana Col‐0 (wild‐type; positive control), single loss‐of‐function mutants of the IMPα isoforms (impα1‐impα9) obtained from the Nottingham Arabidopsis Stock Centre (NASC), and ethylene‐insensitive mutant ein2‐1 (negative control) were grown in the dark in the presence of the ethylene precursor 1‐aminocyclopropane‐1‐carboxylate (ACC) and subsequently analyzed for their triple response. […] The findings on the single impα mutants indicate that nucleocytoplasmic transport and nuclear import of EIN2 CEND cannot be attributed to a single IMPα isoform, possibly because of functional redundancy among the IMPα isoforms.
as §1

The next assay deals with T1, IMPα7_ΔIBB (Arabidopsis thaliana, UniProt Q9M9X7).
T1 construct: hexa-His (TEV site between protein and tag) (C); made in house; host or cells: E. coli BL21gold
As to the kind of experiment: biochemical. It counts as binding. The source says: Genes encoding several isoforms of the IMPα superfamily were either isolated from Arabidopsis thaliana (IMPα1, ‐2, ‐3, ‐4, ‐8) or synthetically produced by GenScript (IMPα5, ‐6, ‐7, ‐9) and cloned into the pETEV21a vector (modified version of the pET21a vector with an additional TEV cleavage site between the GOI and the His‐tag), which contains a C‐terminal hexa‐His‐tag. Only IMPα5 was additionally cloned into the pETEV16b vector (modified version of the pET16b vector with an additional TEV cleavage site between the GOI and the His‐tag), which contains an N‐terminal deca‐His‐tag (see Table S2 for primer list). The AtEIN2C^1215–1281 gene was cloned into the pETEV16b vector and additionally contained a GB1‐domain at the N terminus to enhance solubility. Most of the proteins were expressed in the E. coli BL21pRARE strain, while IMPα7, IMPα8, and ΔIBB_IMPα1 (lack of the IBB domain) were expressed using the E. coli BL21gold strain. The bacterial cultures were adjusted to an initial OD600 of 0.1 and grown in 2YT media at 37 °C until an OD600 between 0.6 and 0.8 was reached. Subsequently, the protein expression was induced with 0.5 mM IPTG. After two hours, the cells were harvested via centrifugation at 10,000 g for 10 min. IMPα5, IMPα6, IMPα7, IMPα8, ΔIBB_IMPα1, and GB1_AtEIN2C^1215–1281 were expressed at 16 °C overnight with the addition of 2% (v/v) ethanol. […]

Another assay relates to EIN2C^479–1294. As to the kind of experiment: In planta FLIM‐FRET, EIN2C^479–1294‐CER donor, IMPα‐YFP acceptors. Particulars: mean, EIN2C^479–1294‐CER donor / IMPα‐YFP acceptor, N. benthamiana epidermal leaf cells. It counts as cell-based, Arabidopsis thaliana. The text has this:
To further investigate the interaction between members of the IMPα superfamily and EIN2 in planta, we used in vivo fluorescence lifetime microscopy and Förster's resonance energy transfer (FLIM‐FRET). Accordingly, the C‐terminal part of EIN2 (EIN2C^479–1294) was fused to the fluorescent protein Cerulean (CER), serving as a donor, and the IMPα isoforms (IMPα1‐7) were fused to YELLOW FL[…] (YFP), serving as acceptors.
A modified version of a previously described procedure was used for the transient transformation of N. benthamiana. An overnight culture of agrobacteria was inoculated in DYT and incubated at 28°C one day before infiltration. […] For co‐infiltration, bacteria solutions were mixed in equal quantities, and Agrobacterium strain GV3101:p19 expressing the p19 silencing inhibitor was added to each mix. […]
Fluorescence lifetime imaging was performed using a protocol described previously. Fluorescence lifetime was measured at a Zeiss LSM 780 confocal microscope (40× water immersion objective, Zeiss C‐PlanApo, NA 1.2). […] Photons were detected in both donor and acceptor channels simultaneously with Tau‐SPADs (PicoQuant, Berlin, Germany). […] Internal response functions for each laser were determined by measuring the fluorescence decay of quenched Atto425 in saturated KI, using the same hardware settings as for the FRET pair of interest. […]

Broadly, the Kd is the concentration at which binding is half-saturated. A high value points to weaker binding.

T1 sequence (Q9M9X7 57-528, stated change not applied): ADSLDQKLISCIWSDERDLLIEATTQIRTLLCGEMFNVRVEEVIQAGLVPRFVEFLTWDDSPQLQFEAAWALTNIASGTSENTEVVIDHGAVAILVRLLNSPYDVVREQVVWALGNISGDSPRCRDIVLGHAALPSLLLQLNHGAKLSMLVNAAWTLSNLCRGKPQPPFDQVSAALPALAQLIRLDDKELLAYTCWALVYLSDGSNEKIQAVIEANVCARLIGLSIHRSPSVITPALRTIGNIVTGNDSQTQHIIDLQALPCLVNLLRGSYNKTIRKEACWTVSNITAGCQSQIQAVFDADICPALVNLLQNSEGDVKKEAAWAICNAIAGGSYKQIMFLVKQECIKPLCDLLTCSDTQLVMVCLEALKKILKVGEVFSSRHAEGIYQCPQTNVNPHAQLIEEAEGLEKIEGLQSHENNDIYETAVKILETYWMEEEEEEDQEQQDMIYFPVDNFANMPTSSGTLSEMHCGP

With `NC1(C(=O)O)CC1` [ACC, 1‐aminocyclopropane‐1‐carboxylic acid], the “reduction in hypocotyl length” value is given as 21% in assay [1] (Col‐0, 0.1 μM ACC); 55.5% in assay [1] (Col‐0, 1 μM ACC); 56.5% in assay [1] (Col‐0, 10 μM ACC). In addition, the “reduction in hypocotyl length (maximum among triple mutants)” value in assay [2] is given as no more than 7.5%. Besides, the “decrease in hypocotyl length” value in assay [3] was 10%.

In the case of `CC(C)C[C@H](NC(=O)[C@H](CCCNC(=N)N)NC(=O)[C@H](CCCNC(=N)N)NC(=O)[C@H](CCCCN)NC(=O)[C@H](Cc1ccc(O)cc1)NC(=O)[C@H](CCCNC(=N)N)NC(=O)[C@H](CCCCN)NC(=O)[C@H](CC(C)C)NC(=O)c1ccc2c(c1)C(=O)OC21c2ccc(N(C)C)cc2Oc2cc(N(C)C)ccc21)C(=O)O` [TAMRA‐NOP‐1], on IMPα7_ΔIBB, the Kd is 3 ± 0.3 µM.

Turning to “IMPα4: A. thaliana IMPα4 fused to YFP, FRET acceptor”, the FRET efficiency with EIN2C^479–1294 was determined as 4.6%.
